How the values were obtained:
HORVW (winter barley) = assay: Greenhouse post-emergence weed control, damage vs untreated (HORVW); format: in vivo, Hordeum vulgare; conditions: 20 DAT, adjuvant g ai/ha: none (CE1-A)
AVEFA (wild oat) = assay: Greenhouse post-emergence weed control, damage vs untreated (AVEFA); format: in vivo, Avena fatua; conditions: adjuvant g ai/ha: none (CE1-A)
Protocol: (§1) A greenhouse study was conducted to evaluate the effect of the alkylether sulfates of formula (I) and other adjuvants on the weed control efficacy of glufosinate. Seedlings of grass plants (AVEFA, ECHCG, DIGSA and SETVI) and broadleaf weeds (KCHSC, CHEAL, AMAPA, AMATA and ABUTH) were grown to a height of 3 to 20 cm, depending on the plant habit in 10×10×10 cm pots filled with sandy planting soil (Limburgerhof soil). The weeds were treated with postemergence applications of glufosinate ammonium at the respective application rates given in the following tables, either alone or combined with various amounts of the respective adjuvants.
(§2) For this, the herbicide formulation and the respective adjuvant were introduced into tap water to obtain the spray liquor. […] The spray liquor was then applied to the plant a spray volume of 200 l/ha using a sprayer (XR Teejet 110015).
(§3) The test period extended over 21 days. During this time, the plants were tended, and their response to the treatments with active compound was evaluated.
(§4) The evaluation for the damage caused by the chemical compositions was carried out using a scale from 0 to 100%, compared to the untreated control plants. Here, 0 means no damage and 100 means complete destruction of the plants.
(§5) The plants used in the greenhouse experiments belonged to the following species:
(§6) The results are summarized in the following tables 1 to 15 that show the applied doses of the individual actives as gram of active ingredient per hectare (g ai/ha), the herbicidal activity of the individual […]

ECHCG (barnyardgrass) = assay: Greenhouse post-emergence weed control, damage vs untreated (ECHCG); format: in vivo, Echinochloa crus-galli; conditions: adjuvant g ai/ha: none (CE1-A)
Protocol: as §1, §2, §3, §4, §5, §6

DIGSA (large crabgrass) = assay: Greenhouse post-emergence weed control, damage vs untreated (DIGSA); format: in vivo, Digitaria sanguinalis; conditions: 20 DAT, adjuvant g ai/ha: none (CE1-A)
Protocol: as §1, §2, §3, §4
(§7) The plants used in the greenhouse experiments belonged to the following species: […]

SETVI (green foxtail) = assay: Greenhouse post-emergence weed control, damage vs untreated (SETVI); format: in vivo, Setaria viridis; conditions: adjuvant g ai/ha: none (CE1-A)
Protocol: as §1, §2, §3, §4, §5, §6

[1] = system: Øgras (average value of AVEFA, ECHCG, DIGSA and SETVI); assay: Greenhouse post-emergence weed control, average over grasses (Øgras); format: in vivo; conditions: adjuvant g ai/ha: none (CE1-A)
Protocol: as §1, §2, §3, §4, §5, §6

KCHSC (kochia) = assay: Greenhouse post-emergence weed control, damage vs untreated (KCHSC); format: in vivo, Kochia scoparia; conditions: 20 DAT, adjuvant g ai/ha: none (CE1-A)
Protocol: as §1, §2, §3, §4, §7

CHEAL (lambsquarter) = assay: Greenhouse post-emergence weed control, damage vs untreated (CHEAL); format: in vivo, Chenopodium album; conditions: adjuvant g ai/ha: none (CE1-A)
Protocol: as §1, §2, §3, §4, §5, §6

AMAPA (palmer amaranth) = assay: Greenhouse post-emergence weed control, damage vs untreated (AMAPA); format: in vivo, Amaranthus palmeri; conditions: 20 DAT, adjuvant g ai/ha: none (CE1-A)
Protocol: as §1, §2, §3, §4, §5
(§8) The results are summarized in the following tables 1 to 15 that show the applied doses of the individual actives as gram of active ingredient per hectare (g ai/ha), the herbicidal activity of the individual actives and of their combinations in post-emergence application assessed 14 and 28 day after treatment (DAT), respectively.

[2] = system: AMATA (common water hemp); assay: Greenhouse post-emergence weed control, damage vs untreated (AMATA); format: in vivo, Amaranthus tuberculatus; conditions: 20 DAT, adjuvant g ai/ha: none (CE1-A)
Protocol: as §1, §2, §3, §4, §5, §8

ABUTH (velvetleaf) = assay: Greenhouse post-emergence weed control, damage vs untreated (ABUTH); format: in vivo, Abutilon theophrasti; conditions: 20 DAT, adjuvant g ai/ha: none (CE1-A)
Protocol: as §1, §2
[…] During this time, the plants were tended, and their response to the treatments with active compound was evaluated.
as §4, §7

[3] = system: ØBLV (average value of KCHSC, CHEAL, AMAPA, AMATA and ABUTH); assay: Greenhouse post-emergence weed control, average over broadleaf weeds (ØBLV); format: in vivo; conditions: 20 DAT, adjuvant g ai/ha: none (CE1-A)
Protocol: as §1, §2, §3, §4, §5, §8

[4] = 75 g ai/ha glufosinate rac., 56 (IE1-A), 62.125 (IE1-B), 51.625 (CE2-A, CE2-B), 55.75 (CE2-C), 66.75 (CE2-D), 103.25 (CE2-E)
[5] = 150 g ai/ha glufosinate rac., 112 (IE1-A), 124.25 (IE1-B), 103.25 (CE2-A, CE2-B), 111.5 (CE2-C), 133.5 (CE2-D), 206.5 (CE2-E)
[6] = 300 g ai/ha glufosinate rac., 223 (IE1-A, CE2-C), 248.5 (IE1-B), 206.5 (CE2-A, CE2-B), 267 (CE2-D), 413 (CE2-E)
[7] = 600 g ai/ha glufosinate rac., 446 (IE1-A, CE2-C), 497 (IE1-B), 413 (CE2-A, CE2-B), 534 (CE2-D), 826 (CE2-E)

`CP(=O)(O)CCC(N)C(=O)O.N` (racemic) [CE1-A, ammonium (2RS)-2-amino-4-(methylphosphinato)butyric acid] was tested, and the “% activity” value (HORVW (winter barley); [4]) was 0%, the “% activity” value (HORVW (winter barley); [5]) was 0% and the “% activity” value (HORVW (winter barley); [6]) was 0%. The “% activity” value (AVEFA (wild oat); [4]) was 5%, the “% activity” value (AVEFA (wild oat); [5]) was 0% and the “% activity” value (AVEFA (wild oat); [6]) was 10%. The “% activity” value (AVEFA (wild oat); [7]) was 25%, the “% activity” value (ECHCG (barnyardgrass); [4]) was 0% and the “% activity” value (ECHCG (barnyardgrass); [5]) was 0%. For the same compound, the “% activity” value (ECHCG (barnyardgrass); [6]) was 0%, the “% activity” value (ECHCG (barnyardgrass); [7]) was 0% and the “% activity” value (DIGSA (large crabgrass); [4]) was 0%. For the same compound, the “% activity” value (DIGSA (large crabgrass); [5]) was 0%, the “% activity” value (DIGSA (large crabgrass); [6]) was 50% and the “% activity” value (DIGSA (large crabgrass); [7]) was 80%. For the same compound, the “% activity” value (SETVI (green foxtail); [4]) was 80%, the “% activity” value (SETVI (green foxtail); [5]) was 95% and the “% activity” value (SETVI (green foxtail); [6]) was 98%. For the same compound, the “% activity” value (SETVI (green foxtail); [7]) was 98%, the “% activity (Øgras)” value [1, 4] was 21% and the “% activity (Øgras)” value [1, 5] was 24%. The “% activity (Øgras)” value [1, 6] was 40%, the “% activity (Øgras)” value [1, 7] was 51% and the “% activity” value (KCHSC (kochia); [4]) was 0%. For the same compound, the “% activity” value (KCHSC (kochia); [5]) was 0%, the “% activity” value (KCHSC (kochia); [6]) was 5% and the “% activity” value (KCHSC (kochia); [7]) was 20%. For the same compound, the “% activity” value (CHEAL (lambsquarter); [4]) was 0%, the “% activity” value (CHEAL (lambsquarter); [5]) was 0% and the “% activity” value (CHEAL (lambsquarter); [6]) was 10%. The “% activity” value (CHEAL (lambsquarter); [7]) was 10%, the “% activity” value (AMAPA (palmer amaranth); [4]) was 50% and the “% activity” value (AMAPA (palmer amaranth); [5]) was 98%. The “% activity” value (AMAPA (palmer amaranth); [6]) was 98%, the “% activity” value (AMAPA (palmer amaranth); [7]) was 98% and the “% activity” value [2, 4] was 20%. The “% activity” value [2, 5] was 98%, the “% activity” value [2, 6] was 85% and the “% activity” value [2, 7] was 98%. The “% activity” value (ABUTH (velvetleaf); [4]) was 5%, the “% activity” value (ABUTH (velvetleaf); [5]) was 20% and the “% activity” value (ABUTH (velvetleaf); [6]) was 75%. For the same compound, the “% activity” value (ABUTH (velvetleaf); [7]) was 60%, the “% activity (ØBLV)” value [3, 4] was 15% and the “% activity (ØBLV)” value [3, 5] was 43%. The “% activity (ØBLV)” value [3, 6] was 55% and the “% activity (ØBLV)” value [3, 7] was 57%.

From patent publication US20260344661A1, “USE OF AN ALKYLETHER SULFATE FOR IMPROVING THE EFFICACY OF HERBICIDES” (BASF SE, priority 2022, published 2026)
